{
  "source": "patent US8609610B2",
  "about": "“Inhibitors of the trypsin-like site of the proteasome and methods of use thereof” (Trustees of Dartmouth College, priority 2011, dated 2013)",
  "key": {"[1]": {"target": "T1, caspase-like sites (β1) of proteasome in MM cells (Homo sapiens, UniProt P28072+Q99436)", "T1 sequence (P28072 35-239)": "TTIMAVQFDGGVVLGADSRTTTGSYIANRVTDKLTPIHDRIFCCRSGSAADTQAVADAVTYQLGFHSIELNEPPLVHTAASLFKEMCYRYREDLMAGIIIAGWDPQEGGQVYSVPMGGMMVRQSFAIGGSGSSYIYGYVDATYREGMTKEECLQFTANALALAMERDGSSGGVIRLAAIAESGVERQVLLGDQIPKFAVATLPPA", "T1 sequence (Q99436 44-277)": "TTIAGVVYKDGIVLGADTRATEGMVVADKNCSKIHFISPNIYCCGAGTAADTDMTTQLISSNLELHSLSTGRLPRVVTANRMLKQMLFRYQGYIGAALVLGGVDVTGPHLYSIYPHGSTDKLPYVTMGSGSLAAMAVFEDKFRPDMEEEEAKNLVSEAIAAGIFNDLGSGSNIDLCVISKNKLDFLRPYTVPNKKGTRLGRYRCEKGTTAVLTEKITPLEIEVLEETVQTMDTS", "assay": "PROTEASOMEGLO assay of proteasome inhibition in MM cells", "assay_type": "cell-based", "details": "6 hours, >>30 no inhibition at 30 μM, >30 inhibition 10-50% at 30 μM, read-out: IC50 for sites: Casp-L"}, "[2]": {"tested_on": "β2 and β2i sites", "assay": "MV-151 label-competition in extracts of RPMI-8226 MM cells", "assay_type": "biochemical", "details": "extracts of RPMI-8226 cells, MV-151 probe", "source_text": "Multiple myeloma cells express constitutive proteasomes and immunoproteasomes, and substrates used for the measurement of activity were cleaved by both. To determine whether there were any differences in inhibition of constitutive proteasomes or immunoproteasomes by NC-002, NC-012, and NC-022, the fluorescent activity-based probe MV-151 (Verdoes, et al. (2006) Chem. Biol. 13:1217-1226) was used in a label-competition experiment. Extracts of RPMI-8226 MM cells (which express more immunoproteasomes than NCI-H929 cells) were treated first with the NC inhibitors and then with the MV-151 probe. This was followed by fractionation on SDS-PAGE to separate proteasome subunits and imaging to reveal those subunits labeled by the probe (i.e., unmodified by the inhibitors)."}, "[3]": {"tested_on": "NCI-H929 cells", "assay": "ALAMAR BLUE cell viability assay", "assay_type": "cell-based", "method_in_brief": "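Myeloma lines were grown in RPMI-1640 with 10% FBS; viability of myeloma cells was read by ALAMAR BLUE mitochondrial dye conversion. PBMNC viability used CELL TITER-GLO ATP luminescence. Caspase-3/7 activity in NCI-H929 and MM1.R was measured with the APO-ONE homogeneous assay.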"}, "[4]": {"target": "caspase-like site of 26S proteasomes (Oryctolagus cuniculus, UniProt A0A5F9DQW2)", "sequence (A0A5F9DQW2 1-212)": "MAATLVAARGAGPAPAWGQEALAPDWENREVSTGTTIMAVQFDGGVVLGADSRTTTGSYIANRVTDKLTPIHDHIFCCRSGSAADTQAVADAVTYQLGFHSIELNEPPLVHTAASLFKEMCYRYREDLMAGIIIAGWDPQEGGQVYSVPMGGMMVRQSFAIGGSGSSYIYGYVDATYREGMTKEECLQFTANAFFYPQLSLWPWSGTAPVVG", "assay": "Inhibition of purified 26S proteasomes, substrate Ac-nLPnLD-amc", "assay_type": "biochemical, rabbit", "details": ">>30 no inhibition at 30 μM, >30 inhibition between 10 and 50% at 30 μM, read-out: IC50 for sites in 26S proteasomes: Casp-L"}, "[5]": {"target": "T2, trypsin-like sites (β2) of proteasome in MM cells (Homo sapiens, UniProt Q99436)", "T2 construct": "endogenous in cells; host or cells: NCI-H929, RPMI-8226 and other MM cell lines", "T2 sequence (Q99436 44-277)": "T1 sequence (Q99436 44-277)", "assay": "PROTEASOMEGLO assay of proteasome inhibition in MM cells", "assay_type": "cell-based", "details": "for pIC50: 6 hours, >>30 no inhibition at 30 μM, >30 inhibition 10-50% at 30 μM, read-out: IC50 for sites: Tr-L"}, "[6]": {"tested_on": "trypsin-like sites (β2) of proteasome in MM cells", "assay": "PROTEASOMEGLO assay of proteasome inhibition in MM cells", "assay_type": "cell-based"}, "[7]": {"tested_on": "T3, chymotrypsin-like sites (β5) of proteasome in MM cells", "T3 construct": "other: NCI-H929; bortezomib 100 nM 1 h; bortezomib 11 nM 1 h; bortezomib 3.7 nM 1 h; bortezomib 33 nM 1 h; other: NCI-H9", "assay": "PROTEASOMEGLO assay of proteasome inhibition in MM cells", "assay_type": "cell-based", "details": "6 hours, >>30 no inhibition at 30 μM, >30 inhibition 10-50% at 30 μM, read-out: IC50 for sites: Chym-L"}, "[8]": {"tested_on": "peripheral blood mononuclear cells (PBMNCs)", "assay": "CELL TITER-GLO viability of PBMNCs", "assay_type": "cell-based", "details": "cells from three donors", "protocol": "RPMI-8226 and NCI-H929 cells were cultured in RPMI-1640 supplemented with 10% fetal bovine serum, penicillin, streptomycin, and plasmocin in 5% CO2 humidified incubator. HEK-293T cells were cultured in DMEM containing 10% fetal calf serum, 10 units/mL penicillin, and 10 μg/mL streptomycin in a 7% CO2 humidified incubator. Viability of multiple myeloma cells was measured with ALAMAR BLUE mitochondrial dye conversion assay. Viability of peripheral blood mononuclear cells (PBMNCs) was measured using CELL TITER-GLO luminescent cell viability assay (Promega), which is based on quantification of ATP present in the cells. Caspase-3/7 activity was measured using APO-ONE 3/7 homogeneous assay (Promega)."}},
  "note": "pIC50: −log10 of the molar value. Like-named read-outs stand apart in the source and are kept apart here.",
  "data": [
    {"smiles": "Cc1c(O)cccc1C(=O)N[C@H](C(=O)N[C@@H](CO)C(=O)N[C@@H](CCCNC(=N)N)C(=O)[C@@]1(C)CO1)C(C)C", "note": "[NC-022, HMB-Val-Ser-Arg-ek]", "values": [
      {"measurement": "pIC50", "setting": "[1]; NCI-H929 cells", "value": "< 4.52"},
      {"measurement": "pIC50", "setting": "[1]; RPMI-8226 cells", "value": "< 4.52"},
      {"measurement": "inhibition of constitutive (β2) versus immunoproteasome (β2i) trypsin-like sites", "setting": "[2]", "value": "equipotent inhibitors of the trypsin-like sites of constitutive and immunoproteasomes"},
      {"measurement": "sensitization: change of IC50 of LU-005", "setting": "[3]; LU-005 1 hour, then NC-022 48 hours, maximal at 3 μM NC-022", "value": "up to 8.5 fold"},
      {"measurement": "cell viability", "setting": "[3]; NCI-H929, 48 hours, even at concentrations that completely inhibited the trypsin-like sites", "value": "No loss of viability"},
      {"measurement": "pIC50", "setting": "[4]", "value": 4.80},
      {"measurement": "inhibition at 3 µM", "setting": "[5]; 3 μM NC-022, within 4-6 hours after addition", "value": 90, "unit": "%"},
      {"measurement": "inhibition of trypsin-like activity by NC-022 treatment", "setting": "[5]; NCI-H929 and KMS-12-BM, 5 hours after NC-022 addition", "value": "that trypsin-like activity was inhibited by >90% but inhibition of the chymotrypsin-like activity was not altered by NC-022 treatment."},
      {"measurement": "inhibition of trypsin-like activity in live cells", "setting": "[5]; NCI-H929 cells treated overnight", "value": "sub-micromolar concentrations"},
      {"measurement": "pIC50", "setting": "[5]; NCI-H929 cells", "value": 6.05},
      {"measurement": "pIC50", "setting": "[5]; RPMI-8226 cells", "value": 4.62},
      {"measurement": "difference in IC50 for trypsin-like activity between NCI-H929 and RPMI-8226", "setting": "[6]", "value": 25, "unit": "fold"},
      {"measurement": "time to steady-state proteasome inhibition", "setting": "[6]; RPMI-8226 cells", "value": "> 6", "unit": "h"},
      {"measurement": "pIC50", "setting": "[7]; NCI-H929 cells", "value": "< 4.52"},
      {"measurement": "pIC50", "setting": "[7]; RPMI-8226 cells", "value": "< 4.52"},
      {"measurement": "sensitization of PBMNCs to bortezomib and carfilzomib", "setting": "[8]", "value": "did not sensitize cells"}
    ]}
  ]
}
